PubChem BioAssay AID179 (DTP/NCI, 2004)
pEC50, pIC50: −log10 of the molar value. Active and inactive are the calls of the source.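 Rule for the calls: active = compounds giving half or more protection of infected cells from virus-caused growth loss, again on retest; inactive = the rest.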

System: CEM cells HIV-1 protection, formazan growth assay
Assay: NCI AIDS Antiviral Assay
Details: for pIC50: measured here: growth of uninfected CEM cells
Outline: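 Protection of CEM cells against HIV-1 measured as cell growth via soluble formazan read-out, with five concentrations tested on both infected and uninfected cells; failure to protect may reflect toxicity.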

Row | Structure (SMILES) | pEC50 | pIC50 | outcome
1 | CC(C)NC1CCCCC2c3cc(F)ccc3[C@]12O (some centres not stated) | 4.22 | < 3.70 | 
2 | Cc1nc2cc(C)[nH]c(=O)n2n1 | < 2.82 | < 2.82 | 
3 | O=c1[nH]c(=O)n(C2OC(CO)C(O)C(F)C2O)cc1F (configuration not stated) | 3.73 | < 3.70 | 
4 | CCc1nc2ccc(N=NN(C)C)cc2[nH]1 | 4.07 | 3.97 | 
5 | O=S(=O)([O-])[O-].[Fe+2].[OH2+]c1c(Cl)cc(Cl)cc1/C=N/Nc1ccccn1 |  |  | inactive
6 | NC(=O)N/N=C(\C(=O)C(=O)Nc1ccc(Cl)c(C(F)(F)F)c1)c1nc2ccc(C(=O)c3ccccc3)cc2[nH]c1=O | < 4.21 | < 4.21 | 
7 | O=C1OC[C@H]2[C@@H]1[C@H]1O[C@@H]2C2=C(CCC2)C1=O | < 3.70 | < 3.70 | 
8 | ClCCNCCNCCCl.O=c1cccccc1[O-].O=c1cccccc1[O-].[Co+3].[O-][Cl+3]([O-])([O-])[O-] | < 3.70 | 5.30 | 
9 | O=c1nc2c(c(-c3ccc(F)cc3)[nH]1)COC/C2=C\c1ccc(F)cc1 |  |  | inactive
10 | O=C1NN2CCN=C2c2cnccc21 | < 2.88 | < 2.88 | 
11 | Cc1nn(C)c2nc3ccc(Cl)cc3c(-c3ccccc3)c12 | < 3.70 | < 3.70 | 
12 | COc1cc2c(cc1OC)C1c3ccccc3CCN1CC2 (configuration not stated) | < 3.70 | 4.03 | 
13 | c1ccc2c(c1)Sc1nccc3ccnc-2c13 | < 3.70 | 4.86 | 
14 | CCCCCCC(c1cc(Cl)c(OC)c(C(=O)OC)c1)c1cc(Cl)c(OC)c(C(=O)OC)c1 | < 4.44 | < 4.44 | 
15 | CCCNC(=O)NS(=O)(=O)c1ccc(Cl)cc1 |  |  | inactive
16 | CC1(C)Oc2ccc3c(=O)cc(-c4ccccc4)oc3c2C1C(=O)O (configuration not stated) | < 3.70 | < 3.70 | 
17 | COC(=O)N/N=C(\C)CC(=O)Nc1ccc(Cl)cc1 | < 4.04 | < 4.04 | 
18 | O=c1sc(-c2nc3ccccc3[nH]2)c(/N=C/c2ccccc2)n1-c1ccccc1 | < 5.58 | < 5.58 | 
19 | CC(C)CCC[C@@H](C)C1CCC2[C@@H]3CC(O)C4C[C@@H](OS(=O)(=O)O)CC[C@]4(C)C3CC[C@@]21C (some centres not stated) | < 4.31 | 4.61 | 
20 | Cn1nc2ccc3nccc(N(CCO)CCO)c3c2n1 | < 3.20 | 4.50 | 
21 | NC(=O)c1c[se]c(C2OC(CO)C(O)C2O)n1 (configuration not stated) |  |  | inactive

Row | Structure (SMILES) | pEC50 | pIC50 | outcome
22 | O=C(CC1Sc2ccccc2NC1=O)Nc1cccc(Cl)c1 (configuration not stated) | < 4.25 | < 4.25 | 
23 | O=c1cc(S(=O)(=O)Cc2ccccc2)[nH]c(=O)[nH]1 | < 3.87 | < 3.87 | 
24 | COC(=O)CCC(C)C1CCC2C3CCC4CC5CCC4C3(CO5)C(=O)C(Br)C12C (configuration not stated) | < 4.97 | < 4.97 | 
25 | Cc1ccc2c(c1)SCc1c-2[nH]c2ccccc12 |  |  | inactive
26 | CCOC(=O)c1cccc(=O)c(C(=O)OCC)c1 |  |  | inactive
27 | O=C(O)c1cc(=O)c2c(OCC(O)COc3cccc4oc(C(=O)O)cc(=O)c34)cccc2o1 | < 3.70 | < 3.70 | 
28 | CCN=C(N)CSS(=O)(=O)O | < 3.70 | < 3.70 | 
29 | COC(=O)C(CCc1cc(OC)ccc1I)C1=CCC2(CC1)OCCO2 (configuration not stated) | < 4.42 | < 4.42 | 
30 | COC(=O)[C@]1(C)CC[C@]2(C)CC[C@]3(C)C4CC[C@@]5(COC(C)=O)C(CCC(=O)[C@@H]5C)[C@]4(C)CCC3(C)[C@@H]2C1 (some centres not stated) | < 4.47 | 4.80 | 
31 | COC(=O)c1cc(C(=O)OC)c(C/C(=N/NC(N)=S)C(=O)Nc2c(C)cccc2C)nc1CC(=Nc1c(C)cccc1C)NNC(N)=S | < 3.70 | < 3.70 | 
32 | Nc1ncnc2c1ncn2C1OC(CSCC(F)(F)F)C(O)C1O (configuration not stated) | < 3.16 | 3.61 | 
33 | CC(=O)O[C@@H]1CC[C@]2(C)C3C[C@H](OC(C)=O)[C@]4(C)C(C(C)CCc5nc6ccccc6o5)CCC4C3[C@H](OC(C)=O)C[C@@H]2C1 (some centres not stated) | < 4.30 | 5.07 | 
34 | ClC1C(Cl)C2CC1C1CC3OC3C21 (configuration not stated) | < 3.70 | < 3.70 | 
35 | COP1(=O)CC2C(Cl)(Cl)C2(C)C1 (configuration not stated) |  |  | inactive
36 | Cc1[nH]c2c(C)cccc2c1C1Cc2ccccc2N1 (configuration not stated) |  |  | inactive
37 | O=C1/C(=C\c2cccc(Oc3ccccc3)c2)SC(c2ccccc2)N1c1cccc([N+](=O)[O-])c1 (configuration not stated) | < 3.70 | 4.40 | 
38 | C[C@H](NC(=O)CNC(=O)CCCCCC(=O)NCC(=O)N[C@@H](C)C(=O)OCc1ccccc1)C(=O)OCc1ccccc1 | < 3.70 | < 4.00 | 
39 | O=C1C=CC(=O)c2c1ccc1c3ccccc3n(Cc3cccc([N+](=O)[O-])c3)c21 | < 3.70 | 5.87 | 
40 | C=CCc1c(O)c2c(c3oc(=O)cc(C)c13)CC(C)O2 (configuration not stated) |  |  | inactive
41 | O=C(O)c1nc2cc(C(F)(F)F)ccc2nc1Nc1ccc(F)cc1 | < 3.70 | 5.11 | 
42 | Cc1c([N+](=O)[O-])c(=O)oc2cc3occc(=O)c3cc12 | < 4.44 | 4.74 | 

Row | Structure (SMILES) | pEC50 | pIC50 | outcome
43 | O=c1[nH]nc(Cc2ccccc2)n1/N=C/c1ccccc1Cl | < 3.70 | < 3.70 | 
44 | CC1(C)CCCC(C)(C)N1[P-]C(=O)[P-]N1C(C)(C)CCCC1(C)C.[C-]#[O+].[C-]#[O+].[C-]#[O+].[C-]#[O+].[C-]#[O+].[C-]#[O+].[Fe].[Fe] (configuration not stated) | < 5.65 | < 5.65 | 
45 | COc1ccc(-c2sc(/N=C/c3cc(OC)c(OC)c(OC)c3)c(C#N)c2C)cc1OC | < 3.70 | 4.95 | 
46 | CN1CCN(c2ccc3nc(-c4ccc5nc(-c6ccc(O)cc6)[nH]c5c4)[nH]c3c2)CC1 | < 3.30 | 5.41 | 
47 | CCOC(=O)/C(N=Nc1ccc(-n2c(C)nc3ccc(Br)cc3c2=O)cc1)=C(/C)O | < 3.70 | 4.40 | 
48 | O=C1c2ccccc2N2Oc3ccccc3C12c1ccccc1 (configuration not stated) | < 4.34 | < 4.34 | 
49 | NS(=O)(=O)c1ccc(NC(=O)/C=C/C(=O)O)cc1 | < 3.70 | < 3.70 | 
50 | CCN1CCC(O)(c2ccc(Oc3ccccc3)cc2)C(C(=O)c2ccc(Oc3ccccc3)cc2)C1 (configuration not stated) | < 3.70 | 4.88 | 
51 | CC(=O)c1ccc2c(c1)CC1(C2)Cc2ccccc2C1=O (configuration not stated) | < 3.70 | 4.13 | 
52 | NC(CO)C(=O)NCCS(=O)(=O)O (configuration not stated) | < 4.00 | < 4.00 | 
53 | Cc1cc2c(C)n(Cc3ccc(Cl)cc3Cl)nc2c(C(=O)O)c1C | < 3.30 | 4.08 | 
54 | CCOP(=O)(Nc1ccccc1P(=O)(OCC)OCC)OCC | < 3.70 | < 3.70 | 
55 | COc1ccc(C(CC(=O)c2cccs2)C(=O)c2cccs2)cc1 (configuration not stated) | < 3.70 | < 3.70 | 
56 | C[S+](C)CCS(=O)(=O)[O-] | < 3.70 | < 3.70 | 
57 | Cc1cccc(/C=N/NC(=S)N(C)CCc2ccccn2)n1 | < 5.70 | 7.48 | 
58 | [O-]/[N+]1=[N+](\[O-])c2ccccc2CCCc2ccccc21 | < 3.57 | < 3.57 | 
59 | CCCC1=NC(C(F)(F)F)(C(F)(F)F)N=C(N2CCOCC2)O1 | < 3.70 | < 3.70 | 
60 | FC(F)(F)c1nc2c(ccc3[nH]c4c(-c5ccccc5)nccc4c32)[nH]1 | < 4.55 | < 4.55 | 
61 | N#Cc1c2ccc([N+](=O)[O-])cc2c(=O)n2c1sc1ccccc12 | < 3.70 | 4.97 | 
62 | COc1cc(/C=C(\C#N)C(N)=C(C#N)C#N)cc(O)c1O | < 4.32 | < 4.32 | 
63 | CC(=O)N(CC(=O)Nc1ccc(S(N)(=O)=O)cc1)C(C)C | < 3.70 | < 3.70 | 
